# Measured values published in US8623897B2, “Methods and compositions for treatment of diabetes and dyslipidemia” (Kareus Therapeutics, SA, priority 2010, dated 2014).
# How the values were obtained:
# [1] = tested on: obese diabetic C57BLKS db/db mice; experiment: In vivo efficacy in diabetic db/db mice (plasma glucose, triglycerides, HOMA index); set-up: species or system mouse; conditions: male db/db mice, after 1-2 weeks of treatment; for Plasma Triglycerides (% change compared to vehicle) / Plasma glucose (% change compared to vehicle): 6 h fast; for Insulin resistance HOMA index (% change compared to vehicle): HOMA = I0×G0/405
# Experimental: Male obese diabetic C57BLKS db/db mice (6 weeks old) were procured from the Jackson Laboratory (Bar Harbor, Me.) and were maintained on LabDiet 5K52 ad libitum with access to water. Animals were kept in a temperature-controlled room on a 12:12-h light-dark cycle. Experiments were performed on 6-9 week old mice.
# Blood samples were collected after a 6 h fast on day 0 (baseline) and at the end week 1 and week 2 (day 7 and day 14) for analysis of glucose, triglycerides, total cholesterol, insulin and free fatty acid levels. Body weight and feed intake was measured twice weekly. Before initiation of the treatment, the animals were randomized based on plasma glucose levels into treatment groups (n=8 per group). The animals were administered the test compounds in 0.5% carboxymethylcellulose in water at the mentioned doses for two weeks by oral gavage. The control animals received the vehicle (0.5% carboxymethylcellulose in water) alone. Compound administration was continued till day 16.
# Plasma glucose (PG) and triglycerides (TG) were measured spectrophotometrically in a microplate reader using reagent kits (Labkit, Merck) according to the manufacturer's instructions. Plasma insulin was measured by ELISA using a Rat/Mouse kit from Millipore (Cat. No. EZRMI-13K).
# The percentage reduction was calculated according to the following formula
# [formula] Statistical analysis was carried out by one way ANOVA followed by Dunnett's test using GraphPad Prism.
# Determination of Homeostatic model assessment of insulin resistance (HOMA)—The HOMA index for insulin resistance was calculated using the formula— I0×G0/405 Where I0 is the fasting insulin (μU/ml), G0 is the fasting glucose in mg/dL. A factor of 6.945 was used for the conversion of insulin pmol/L to μlU/L).
# The table below summarizes the effect on plasma glucose, triglycerides, and insulin resistance after 1-2 weeks of treatment with representative compounds of Formula I. Example numbers denote the products of examples given above. The data presented in the table is representative and should not be read as limiting the invention to the specific examples listed in the Table.
SMILES,melting point [°C],other results
NC(=O)C1(CCCCCCCCCCCCC2(C(=O)O)CC2)CC1 [Example 12],116.6 to 118.1,Plasma Triglycerides (% change compared to vehicle) ([1]; 20 mg/kg oral gavage): −28%; Plasma glucose (% change compared to vehicle) ([1]; 20 mg/kg oral gavage): −55%; Insulin resistance HOMA index (% change compared to vehicle) ([1]; 20 mg/kg oral gavage): −89%
CC(C)(CCCCCCCCCCCCC1(C(=O)O)CC1)C(=O)O,85.6 to 86.7,–
"O=C(O)CC1(CCCCCCCCCCCC2(C(=O)O)CC2)CC1 [Example 30, 1-[11-(1-Carboxymethyl-cyclopropyl)-undecyl]-cyclopropanecarboxylic acid]",75.3 to 78.9,–
"O=C(O)C1(CCCCCCCCCCCCC2(C(F)F)CC2)CC1 [Example 39, 1-[12-(1-Difluoromethyl-cyclopropyl)-dodecyl]-cyclopropanecarboxylic acid]",54 to 54.8,–
"COCC1(CCCCCCCCCCCCC2(C(=O)O)CC2)CC1 [Example 15, 1-[12-(1-Methoxymethyl-cyclopropyl)-dodecyl]-cyclopropanecarboxylic acid]",36.4 to 37.6,Plasma Triglycerides (% change compared to vehicle) ([1]; 15 mg/kg oral gavage): −35%; Plasma glucose (% change compared to vehicle) ([1]; 15 mg/kg oral gavage): −56%; Insulin resistance HOMA index (% change compared to vehicle) ([1]; 15 mg/kg oral gavage): −92%
N#CC1(CCCCCCCCCCCCC2(C(=O)O)CC2)CC1,44.4 to 46.9,–
"O=C(O)C1(CCCCCCCCCCCCC2(C(=O)NC3CC3)CC2)CC1 [Example 35, 1-[12-(1-Cyclopropylcarbamoyl-cyclopropyl)-dodecyl]-cyclopropane carboxylic acid]",95.3 to 97.7,Plasma glucose (% change compared to vehicle) ([1]; 15 mg/kg oral gavage): −30%
"O=C(O)CC1(CCCCCCCCCCC2(C(=O)O)CC2)CC1 [Example 23, 1-[10-(1-Carboxymethyl-cyclopropyl)-decyl]-cyclopropanecarboxylic acid]",71.9 to 74.3,–
"COC(=O)C1(CCCCCCCCCCCCC2(C(=O)NC3CC3)CC2)CC1 [Example 34, 1-[12-(1-cyclopropylcarbamoyl-cyclopropyl)-dodecyl]-cyclopropane-carboxylic acid methyl ester]",50.6 to 53,–
N#CC1(CCCCCCCCCCCCC2(C#N)CC2)CC1,45 to 46.9,–
"CCOC(=O)C1(CCCCCCCCCCCCC2(C(=O)OCC)CC2)CC1 [Example 10, 2,15-Dicyclopropyl-hexadecanedoic acid diethyl ester]",–,Plasma Triglycerides (% change compared to vehicle) ([1]; 15 mg/kg oral gavage): −23%; Plasma glucose (% change compared to vehicle) ([1]; 15 mg/kg oral gavage): −51%
"CS(=O)(=O)NC(=O)C1(CCCCCCCCCCCCC2(C(=O)O)CC2)CC1 [Example 37, 1-[12-(1-Methanesulfonylaminocarbonyl-cyclopropyl)-dodecyl]-cyclopropanecarboxylic acid]",97.5 to 99.4,Plasma glucose (% change compared to vehicle) ([1]; 15 mg/kg oral gavage): −59%
"O=C(NCCO)C1(CCCCCCCCCCCCC2(C(=O)NCCO)CC2)CC1 [Example 40, 1,1′-dodecane-1,12-diylbis[N-(2-hydroxyethyl)cyclopropanecarboxamide]]",112.5 to 113.5,–
"O=C(O)C1(CCCCCCCCCCCCC2(C(=O)O)CC2)CC1 [Example 1, 2,15-Dicycloproryl-hexadecanedioic acid]",–,Plasma glucose (% change compared to vehicle) ([1]; 10 mg/kg oral gavage): −52%; Insulin resistance HOMA index (% change compared to vehicle) ([1]; 10 mg/kg oral gavage): −65%
"O=C(O)C1(CCCCCCCCCCCCC2(C(=O)NCCO)CC2)CC1 [Example 42, 1-{12-[1-(2-hydroxy-ethylcarbamoyl)-cyclopropyl]-dodecyl}-cyclopropane carboxylic acid]",81.1 to 83.8,–
"O=C(O)CC1(CCCCCCCCCCC2(CC(=O)O)CC2)CC1 [Example 4, {1-[10-(1-carboxymethyl-cyclopropyl)-decyl]-cyclopropyl}-acetic acid]",–,Plasma Triglycerides (% change compared to vehicle) ([1]; 50 mg/kg oral gavage): −51%; Insulin resistance HOMA index (% change compared to vehicle) ([1]; 50 mg/kg oral gavage): −54%
"COC(=O)C1(CCCCCCCCCCCCC2(C(=O)NS(C)(=O)=O)CC2)CC1 [Example 36, 1-[12-(1-Methanesulfonylaminocarbonyl-cyclopropyl)-dodecyl]-cyclopropanecarboxylic acid methyl ester]",53.5 to 54.5,–
